“Also recorded” adds a separate entry of the source.
Legend:
[1] = tested on: proteasome subunits (β5, α7); assay: Levels of proteasome subunits (immunoblot); format: cell-based, human; details: HFL-1, 24 h treatment
Protocol: 8.1. HFL-1 HDFs were cultured as described in 5.1. Following the incubation with the various substances for 24 h, cells were collected, lysed and proteins were extracted and subjected to SDS-PAGE followed by immunoblot analysis against different proteasome subunits. Protein concentrations were determined using the Bradford method with BSA as a standard.
8.2. […] In total, the increased amount of proteasome subunits expression levels provide an explanation regarding the increased proteasome activities recorded in these cells.

[2] = tested on: middle aged and terminally senescent HFL-1 HDFs; assay: Reversal of senescent phenotype in middle aged and terminally senescent cells; format: cell-based, human; details: for proliferation of middle aged cells (FIG. 3A): middle aged HFL-1 (cpd 59), QUER, 18α GA 2 μg/ml, QU-CAP 0.5, 2 and 5 μg/ml; for proliferation of middle aged cells (FIG. 3A) / proliferation of terminally senescent cells (FIG. 3B): 1 week; for morphology of middle aged cells (FIG. 4A) / β-galactosidase activity staining of middle aged cells (FIG. 4A): middle aged HFL-1, 1 week; for β-galactosidase activity staining of middle aged cells (FIG. 4A): QU-CAP all three concentrations; for reversal of the senescent phenotype / rejuvenation effect (conclusion): middle aged cells or terminally senescent cells; for proliferation of terminally senescent cells (FIG. 3B): terminally senescent HFL-1 (cpd 65), QUER 2 μg/ml, QU-CAP 2 and 5 μg/ml; for morphology of terminally senescent cells (FIG. 4B) / β-galactosidase activity of terminally senescent cells (FIG. 4B): terminally senescent HFL-1, 1 week, QU-CAP higher concentrations
Protocol: 3.1. HFL-1 HDFs that have senesced in vitro were used (growth at 37° C., 5% CO2 and 95% humidity). More specifically, middle aged HFL-1 HDFs (cpd 59) and terminally senescent HFL-1 HDFs (cpd 65) that had senesced in the absence of any substance were used.
3.2. The cells were seeded and maintained in complete medium (see 1.2). Culture medium supplemented with the substances [final concentration for quercetin (QUER), 18α-glycyrrhetinic acid (18α GA), and hederagenin (HED): 2 μg/ml and for quercetin caprylate (QU-CAP) three concentrations were applied: 0.5, 2 and 5 μg/ml] or the diluents (0.1% DMSO or 0.1% CAP) were added 24 h later. The cells were replenished with fresh media supplemented with the substances or the diluents every 24 h for 1 week and their numbers were then examined using a Coulter Z2® counter (Coulter Corporation).
3.3. Detection of β-galactosidase activity was performed in these cells as described above and photographs of the cells following β-galactosidase activity assay were taken.

HFL-1 HDFs [3] = assay: Cellular survival with or without oxidative stress; format: cell-based, human; details: for survival to an oxidative stress challenge (conclusion): vs control cells
Protocol: 6.1. HFL-1 HDFs were cultured as described in 5.1. Following the incubation with the various substances cells were collected and counted using a Coulter Z2® counter (Coulter Corporation). In replica cultures, culture medium supplemented with the substances as described above were also supplemented with 300 μM H2O2 for 2.5 h. The cells were then thoroughly washed with PBS, supplemented with complete medium containing the examined substances and maintained in culture for additional 24 h. They were then collected and counted using a Coulter Z2® counter (Coulter Corporation).

[4] = tested on: HFL-1 human diploid fibroblasts; assay: Lifespan (cumulative population doublings) and morphology of human diploid fibroblasts under continuous treatment; format: cell-based; details: for appearance of the senescent phenotype (conclusion): continuous treatment, morphology, shape, β-galactosidase positive cells
Protocol: 1.1. HFL-1 human diploid fibroblasts (HDFs) were used in in vitro conditions (growth at 37° C., 5% CO2 and 95% humidity).
1.2. The cells were maintained in Dulbecco's modified Eagle's medium (DMEM®; Invitrogen Life Technologies Inc.) supplemented with 10% (v/v) fetal calf serum, 100 Units/ma penicillin, 100 μg/ml strepromycin, 2 mM glutamine and 1% (v/v) non-essential amino acids (complete medium).
1.3. The cells were constantly cultured in culture medium supplemented with the substances [final concentration for quercetin (QUER), 18α-glycyrrhetinic acid (18α GA), and hederagenin (HED): 2 μg/ml and for quercetin caprylate (QU-CAP) three concentrations were applied: 0.5, 2 and 5 μg/ml]. Quercetin, 18α-glycyrrhetinic acid and hederagenin were diluted in DMSO (dimethyl sulfoxide) whereas quercetin caprylate was diluted in caprilic/capric triglycerides (CAP). Therefore, the control cultures were incubated in medium supplemented with 0.1% DMSO or 0.1% CAP.
1.4. The cells were replenished with fresh media supplemented with the substances or the diluents every 24 h and their numbers were examined using a Coulter Z2® counter (Coulter Corporation) until they reached senescence (approximately after 13 weeks). The cumulative population doublings performed by each culture were calculated using the following formula: CPD=Σ[PD] where PD=LOG [Nfinal/Ninitial]/LOG [2], where N final represents the number of cells that were measured when each culture reached confluence and N initial represents the number of cells that was initially seeded.
1.5. Photographs of the cells maintained in cell culture and treated with the various substances for the same time period were taken.
1.6. […] More specifically, cells that were incubated with quercetin caprylate gave up to 2.8% more population doublings as compared to the population doublings performed by the relative control cultures. Cells that were incubated with the other substances gave up to 2.9% more population doublings as compared to their relative control cultures.
1.7. […] Cells that were treated with either of the tested substances maintained the young morphology for longer as compared to the control cultures (DMSO-treated and CAP-treated).

HFL-1 HDFs [5] = assay: Levels of oxidized proteins (OxyBlot analysis); format: cell-based, human; details: HFL-1, 24 h treatment; vs control
Protocol: 4.1. HFL-1 HDFs were cultured as described in 1.1-1.4. Cells treated with the substances for 24 h and were then lysed and proteins were extracted and subjected to SDS-PAGE (sodium dodecylsulfate polyacrylamide gel electrophorese) followed by OxyBlot analysis that detects the carbonylated groups on proteins. OxyBlot™ is a protein oxidation detection kit.
4.2. […] However it is worth mentioning that OxyBlot analysis detects only carbonylated groups on proteins which is just one oxidative stress-mediated post-translational protein modification.

[6] = tested on: Mouse melanocytes (B10F16 cell line); assay: Cellular whitening of melanocytes (cell pellet); format: cell-based; details: for whitening of melanocytes (conclusion): concentration not given; for whitening of melanocyte pellet (FIG. 10): 72 h
Protocol: A.1. Mouse melanocytes (B10F16 cell line) were used in in vitro conditions (growth at 37° C., 5% CO2 and 95% humidity).
A.2. The cells were maintained in Dulbecco's modified Eagle's medium (DMEM®; Invitrogen Life Technologies Inc.) supplemented with 10% (v/v) fetal calf serum, 100 Units/ma penicillin, 100 μg/ml strepromycin, 2 mM glutamine and 1% (v/v) non-essential amino acids (complete medium).
A.3. 10^5 cells were seeded in petri dishes and the following day they were fed with medium supplemented with the substances [final concentration for all substances: 5 μg/ml and 10 μg/ml]. Quercetin (QUER), 18α-glycyrrhetinic acid (18α GA) and hederagenin (HED) were diluted in DMSO whereas quercetin caprylate was diluted in caprilic/capric triglycerides (CAP). Therefore, the control cultures were incubated in medium supplemented with 0.1% DMSO or 0.1% CAP. The media were replenished every 24 h and the cells were kept under these conditions constantly for 72 h. Cells were then collected and pelleted and the cell pellet was photographed.
A.4. […] The result was positively correlated to the concentration of quercetin used.

tyrosinase = assay: Tyrosinase expression (immunoblot); format: cell-based, mouse; details: for protein expression levels of tyrosinase (conclusion): concentration not given; for protein levels of tyrosinase (FIG. 11): mouse melanocytes, 72 h
Protocol: B.1. Mouse melanocytes were cultured as described in A.1.-A.3. After 72 h of treatment, the cells were collected, lysed and proteins were extracted and subjected to SDS-PAGE followed by immunoblot analysis against tyrosinase. Protein concentrations were determined using the Bradford method with BSA as a standard.

## CC1(C)[C@@H](O)CC[C@]2(C)[C@H]3C(=O)C=C4[C@H]5C[C@@](C)(C(=O)O)CC[C@]5(C)CC[C@@]4(C)[C@]3(C)CC[C@@H]12 [18α-glycyrrhetinic acid]
[1]
  protein levels of proteasome subunits β5 and α7 (FIG. 9): similar
[2]
  proliferation of middle aged cells (FIG. 3A): higher proliferation rates
  morphology of middle aged cells (FIG. 4A): acquired a morphology more similar to the one exhibited by young cells
  β-galactosidase activity staining of middle aged cells (FIG. 4A): less positive to β-galactosidase activity staining
  reversal of the senescent phenotype / rejuvenation effect (conclusion): regained a younger morphology and were induced to limited but significant proliferation
HFL-1 HDFs [3]; 300 μM H2O2 for 2.5 h, then additional 24 h in culture
  higher survival rate after oxidative stress as compared to control cultures: 2%
HFL-1 HDFs [3]; 24 h treatment, without oxidative stress
  higher survival rate as compared to diluent-treated cells: 3.5%
HFL-1 HDFs [3]
  survival to an oxidative stress challenge (conclusion): survived better
[4]
  appearance of the senescent phenotype (conclusion): delay in the appearance of the senescent phenotype
HFL-1 HDFs [5]
  levels of oxidized (carbonylated) proteins (FIG. 5): lower amounts of oxidized proteins; also recorded: slightly lower levels
[6]
  whitening of melanocytes (conclusion): revealed whitening potential
[6]; lower concentration (5 μg/ml)
  whitening of melanocyte pellet (FIG. 10): revealed whitening potential
tyrosinase
  protein expression levels of tyrosinase (conclusion): decrease of the protein expression levels of tyrosinase

## CC1(C)CC[C@]2(C(=O)O)CC[C@]3(C)C(=CC[C@@H]4[C@@]5(C)CC[C@H](O)[C@@](C)(CO)[C@@H]5CC[C@]43C)[C@@H]2C1 [hederagenin, Hederagenin]
[1]
  protein levels of proteasome subunits β5 and α7 (FIG. 9): did not detect any up-regulation
[6]
  whitening of melanocytes (conclusion): revealed whitening potential
[6]; lower concentration (5 μg/ml)
  whitening of melanocyte pellet (FIG. 10): revealed whitening potential
tyrosinase
  protein expression levels of tyrosinase (conclusion): decrease of the protein expression levels of tyrosinase
tyrosinase; high concentration
  protein levels of tyrosinase (FIG. 11): reduced protein levels of tyrosinase

## O=c1c(O)c(-c2ccc(O)c(O)c2)oc2cc(O)cc(O)c12 [quercetin, Quercetin]
[1]
  protein levels of proteasome subunits β5 and α7 (FIG. 9): elevated protein levels
[2]
  proliferation of middle aged cells (FIG. 3A): higher proliferation rates
  morphology of middle aged cells (FIG. 4A): acquired a morphology more similar to the one exhibited by young cells
  β-galactosidase activity staining of middle aged cells (FIG. 4A): less positive to β-galactosidase activity staining
  reversal of the senescent phenotype / rejuvenation effect (conclusion): regained a younger morphology and were induced to limited but significant proliferation
  proliferation of terminally senescent cells (FIG. 3B): limited but significant cell proliferation
  morphology of terminally senescent cells (FIG. 4B): acquired a morphology that exhibits more similarities with the morphology of young fibroblasts
  β-galactosidase activity of terminally senescent cells (FIG. 4B): many of those cells were negative for β-galactosidase activity
HFL-1 HDFs [3]
  survival to an oxidative stress challenge (conclusion): survived better
[4]
  appearance of the senescent phenotype (conclusion): delay in the appearance of the senescent phenotype
[6]; both concentrations (5 and 10 μg/ml)
  whitening of melanocyte pellet (FIG. 10): revealed whitening potential
[6]
  whitening of melanocytes (conclusion): revealed whitening potential
tyrosinase
  protein expression levels of tyrosinase (conclusion): decrease of the protein expression levels of tyrosinase
tyrosinase; 5 and 10 μg/ml
  protein levels of tyrosinase (FIG. 11): reduced protein levels of tyrosinase

## Quercetin caprylate
[1]
  protein levels of proteasome subunits β5 and α7 (FIG. 9): elevated protein levels
[2]
  proliferation of middle aged cells (FIG. 3A): higher proliferation rates
  morphology of middle aged cells (FIG. 4A): acquired a morphology more similar to the one exhibited by young cells
  β-galactosidase activity staining of middle aged cells (FIG. 4A): less positive to β-galactosidase activity staining
  reversal of the senescent phenotype / rejuvenation effect (conclusion): regained a younger morphology and were induced to limited but significant proliferation
  proliferation of terminally senescent cells (FIG. 3B): limited but significant cell proliferation
  morphology of terminally senescent cells (FIG. 4B): acquired a morphology that exhibits more similarities with the morphology of young fibroblasts
  β-galactosidase activity of terminally senescent cells (FIG. 4B): many of those cells were negative for β-galactosidase activity
HFL-1 HDFs [3]
  survival to an oxidative stress challenge (conclusion): survived better
[4]; HFL-1, continuous treatment about 13 weeks, QU-CAP 0.5, 2 and 5 μg/ml, others 2 μg/ml, vs 0.1% DMSO or 0.1% CAP
  more population doublings as compared to the relative control cultures: up to 2.8%
[4]
  appearance of the senescent phenotype (conclusion): delay in the appearance of the senescent phenotype
HFL-1 HDFs [5]
  levels of oxidized (carbonylated) proteins (FIG. 5): lower amounts of oxidized proteins; also recorded: less oxidized proteins
tyrosinase; 5 and 10 μg/ml
  protein levels of tyrosinase (FIG. 11): reduced protein levels of tyrosinase

— patent US20110034427A1, “Anti-aging properties of quercetin, 18alpha-glycyrrhetinic acid and hederagenin and their derivatives” (priority 2009, published 2011)
